Laboratory results reported in ChEMBL document CHEMBL1201862, “PubChem BioAssay data set” (2004).
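The compound was tested at five concentrations on cells cultured in 96-well plates, with a 48-hour exposure period. At the GI50, growth is halved.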 The source made the active and inactive calls. Rule as the data show it: active = GI50 up to about 1.1 µM and inactive = higher.

Columns and labels:
Experiment in all cases: NCI anticancer screen, dose series, 48 h
OVCAR-3 = tested on: OVCAR-3
MCF7 = tested on: MCF7
MOLT-4 = tested on: MOLT-4
SF-295 = tested on: SF-295
NCI-H226 = tested on: NCI-H226
SK-MEL-2 = tested on: SK-MEL-2
LOX IMVI = tested on: LOX IMVI
PC-3 = tested on: PC-3
HT-29 = tested on: HT-29
M14 = tested on: M14
RPMI-8226 = tested on: RPMI-8226
SN12C = tested on: SN12C
HL-60 = tested on: HL-60
HCC 2998 = tested on: HCC 2998
CAKI-1 = tested on: CAKI-1
U-251 = tested on: U-251
SK-MEL-28 = tested on: SK-MEL-28
UO-31 = tested on: UO-31
SNB-19 = tested on: SNB-19
SF-268 = tested on: SF-268

In the case of `O=c1c2ccccc2[nH]c2c(Cl)cc(Cl)c(N3CCCCC3)c12`, the GI50 (OVCAR-3) is reported as 31.1 µM (inactive), the GI50 (MCF7) is reported as 20.7 µM (inactive) and the GI50 (MOLT-4) is reported as 26.4 µM (inactive). For the same molecule, the GI50 (SF-295) was 32.4 µM (inactive), the GI50 (NCI-H226) was 23.7 µM (inactive) and the GI50 (SK-MEL-2) was 21.7 µM (inactive). The GI50 (LOX IMVI) was 41.6 µM (inactive), the GI50 (PC-3) was 35.5 µM (inactive) and the GI50 (HT-29) was 16 µM (inactive). For the same molecule, the GI50 (M14) was 27.3 µM (inactive), the GI50 (RPMI-8226) was 29.9 µM (inactive) and the GI50 (SN12C) was 22.1 µM (inactive). The GI50 (HL-60) was 37.5 µM (inactive), the GI50 (HCC 2998) was 31.9 µM (inactive) and the GI50 (CAKI-1) was 30.5 µM (inactive). For the same molecule, the GI50 (U-251) was 24.4 µM (inactive), the GI50 (SK-MEL-28) was 58.5 µM (inactive) and the GI50 (UO-31) was 20 µM (inactive). The GI50 (SNB-19) was 34.6 µM (inactive).
In the case of `COc1ccc(C2C3=C(COC3=O)Oc3cc4c(cc32)OCO4)c(OC)c1` (centres undefined), the GI50 (OVCAR-3) is reported as 5.52 µM (inactive), the GI50 (MCF7) is reported as 6.89 µM (inactive) and the GI50 (MOLT-4) is reported as 4.28 µM (inactive). For the same molecule, the GI50 (SF-295) was 5.77 µM (inactive), the GI50 (NCI-H226) was 31.8 µM (inactive) and the GI50 (LOX IMVI) was 4.31 µM (inactive). For the same molecule, the GI50 (PC-3) was 6.75 µM (inactive), the GI50 (HT-29) was 6.65 µM (inactive) and the GI50 (M14) was 15 µM (inactive). For the same molecule, the GI50 (RPMI-8226) was 7.74 µM (inactive), the GI50 (SN12C) was 6.75 µM (inactive) and the GI50 (HL-60) was 4.34 µM (inactive). For the same molecule, the GI50 (HCC 2998) was 20.8 µM (inactive), the GI50 (CAKI-1) was 18.6 µM (inactive) and the GI50 (U-251) was 19.3 µM (inactive). For the same molecule, the GI50 (SK-MEL-28) was 23 µM (inactive), the GI50 (UO-31) was 16.3 µM (inactive) and the GI50 (SNB-19) was 37.8 µM (inactive). The GI50 (SF-268) was 34 µM (inactive).
For `CC(=O)O[C@H]1C(=O)[C@@]2(C)[C@H]([C@H](OC(=O)c3ccccc3)[C@]3(O)C[C@H](OC(=O)[C@H](OC(=O)OCCC(O)CO)[C@@H](NC(=O)c4ccccc4)c4ccccc4)C(C)=C1C3(C)C)[C@]1(OC(C)=O)CO[C@@H]1C[C@@H]2O` (some centres undefined), the GI50 (OVCAR-3) was < 0.01 µM (active), the GI50 (MCF7) was < 0.01 µM (active) and the GI50 (MOLT-4) was < 0.0109 µM (active). The GI50 (SF-295) was 0.0192 µM (active), the GI50 (NCI-H226) was < 0.01 µM (active) and the GI50 (SK-MEL-2) was 29 µM (inactive). The GI50 (LOX IMVI) was < 0.01 µM (active), the GI50 (PC-3) was < 0.0128 µM (active) and the GI50 (HT-29) was < 0.01 µM (active). For the same molecule, the GI50 (M14) was < 0.01 µM (active), the GI50 (RPMI-8226) was < 0.01 µM (active) and the GI50 (SN12C) was < 0.01 µM (active). For the same molecule, the GI50 (HL-60) was < 0.01 µM (active), the GI50 (HCC 2998) was < 0.01 µM (active) and the GI50 (CAKI-1) was 0.631 µM (active). For the same molecule, the GI50 (U-251) was < 0.01 µM (active), the GI50 (UO-31) was 0.989 µM (active) and the GI50 (SNB-19) was < 0.01 µM (active). The GI50 (SF-268) was < 0.0111 µM (active).
With `Nc1nc(NNc2cccc(F)c2)cc(=O)[nH]1` the GI50 (OVCAR-3) was 24.9 µM (inactive), the GI50 (MCF7) was 29.5 µM (inactive) and the GI50 (MOLT-4) was 27.7 µM (inactive). The GI50 (SF-295) was 33.3 µM (inactive), the GI50 (NCI-H226) was > 100 µM (inactive) and the GI50 (LOX IMVI) was 21.1 µM (inactive). The GI50 (PC-3) was 25.2 µM (inactive), the GI50 (HT-29) was 22.5 µM (inactive) and the GI50 (M14) was 56.5 µM (inactive). For the same molecule, the GI50 (RPMI-8226) was 32.2 µM (inactive), the GI50 (SN12C) was 65.8 µM (inactive) and the GI50 (HL-60) was 23.1 µM (inactive). The GI50 (HCC 2998) was 35.5 µM (inactive), the GI50 (U-251) was 20.7 µM (inactive) and the GI50 (SK-MEL-28) was > 100 µM (inactive). For the same molecule, the GI50 (UO-31) was 89.1 µM (inactive) and the GI50 (SNB-19) was 65.2 µM (inactive).
With `Cc1cc(NC(=O)NC(=O)c2ccccc2[N+](=O)[O-])ccc1Oc1ncc(Cl)cn1` the GI50 (OVCAR-3) was 0.0361 µM (active), the GI50 (MCF7) was 0.037 µM (active) and the GI50 (MOLT-4) was 0.0702 µM (active). For the same molecule, the GI50 (SF-295) was 0.0598 µM (active), the GI50 (NCI-H226) was 0.232 µM (active) and the GI50 (LOX IMVI) was 0.133 µM (active). The GI50 (PC-3) was 0.0336 µM (active), the GI50 (HT-29) was 0.0488 µM (active) and the GI50 (M14) was 0.0782 µM (active). For the same molecule, the GI50 (RPMI-8226) was 0.223 µM (active), the GI50 (SN12C) was 0.492 µM (active) and the GI50 (HL-60) was 0.0327 µM (active). The GI50 (HCC 2998) was 0.146 µM (active), the GI50 (U-251) was 0.0916 µM (active) and the GI50 (SK-MEL-28) was 2.37 µM (inactive). For the same molecule, the GI50 (UO-31) was 0.0889 µM (active), the GI50 (SNB-19) was 0.212 µM (active) and the GI50 (SF-268) was 1.9 µM (inactive).
In the case of `CC(=O)NC(Cc1c[nH]cn1)C(=O)N1CCCC1C(N)=O` (centres undefined), the GI50 (OVCAR-3) is reported as > 100 µM (inactive), the GI50 (MCF7) is reported as > 100 µM (inactive) and the GI50 (MOLT-4) is reported as > 100 µM (inactive). For the same molecule, the GI50 (SF-295) was > 100 µM (inactive), the GI50 (NCI-H226) was > 100 µM (inactive) and the GI50 (LOX IMVI) was > 100 µM (inactive). For the same molecule, the GI50 (PC-3) was > 100 µM (inactive), the GI50 (HT-29) was > 100 µM (inactive) and the GI50 (M14) was > 100 µM (inactive). For the same molecule, the GI50 (RPMI-8226) was > 100 µM (inactive), the GI50 (SN12C) was > 100 µM (inactive) and the GI50 (HL-60) was > 100 µM (inactive). The GI50 (HCC 2998) was > 100 µM (inactive), the GI50 (CAKI-1) was > 100 µM (inactive) and the GI50 (U-251) was > 100 µM (inactive). The GI50 (SK-MEL-28) was > 100 µM (inactive), the GI50 (UO-31) was > 100 µM (inactive) and the GI50 (SNB-19) was > 100 µM (inactive). For the same molecule, the GI50 (SF-268) was > 100 µM (inactive).
With `N=C(N)c1ccc(/N=N\c2c(O)ccc3cc4c(/N=N\c5ccc(C(=N)N)cc5)c(O)ccc4cc23)cc1` the GI50 (OVCAR-3) was > 100 µM (inactive), the GI50 (MCF7) was 87.9 µM (inactive) and the GI50 (MOLT-4) was 37.8 µM (inactive). For the same molecule, the GI50 (SF-295) was 50.8 µM (inactive), the GI50 (NCI-H226) was > 100 µM (inactive) and the GI50 (SK-MEL-2) was > 100 µM (inactive). The GI50 (PC-3) was > 100 µM (inactive), the GI50 (HT-29) was 75.9 µM (inactive) and the GI50 (M14) was > 100 µM (inactive). For the same molecule, the GI50 (RPMI-8226) was 28 µM (inactive), the GI50 (SN12C) was > 100 µM (inactive) and the GI50 (HL-60) was 25.2 µM (inactive). For the same molecule, the GI50 (HCC 2998) was > 100 µM (inactive), the GI50 (CAKI-1) was > 100 µM (inactive) and the GI50 (U-251) was 51.1 µM (inactive). The GI50 (SK-MEL-28) was > 100 µM (inactive), the GI50 (UO-31) was 53.1 µM (inactive) and the GI50 (SNB-19) was > 100 µM (inactive). The GI50 (SF-268) was 95.3 µM (inactive).
With `N#C/C=C1\C=CC(O)C(O)C1OC1OC(CO)C(O)C(O)C1O` (centres undefined) the GI50 (OVCAR-3) was > 100 µM (inactive), the GI50 (MCF7) was > 100 µM (inactive) and the GI50 (MOLT-4) was > 100 µM (inactive). For the same molecule, the GI50 (SF-295) was > 100 µM (inactive), the GI50 (SK-MEL-2) was > 100 µM (inactive) and the GI50 (LOX IMVI) was > 100 µM (inactive). The GI50 (PC-3) was > 100 µM (inactive), the GI50 (HT-29) was > 100 µM (inactive) and the GI50 (M14) was > 100 µM (inactive). For the same molecule, the GI50 (RPMI-8226) was > 100 µM (inactive), the GI50 (SN12C) was > 100 µM (inactive) and the GI50 (HL-60) was > 100 µM (inactive). The GI50 (HCC 2998) was > 100 µM (inactive), the GI50 (CAKI-1) was > 100 µM (inactive) and the GI50 (U-251) was > 100 µM (inactive). For the same molecule, the GI50 (SK-MEL-28) was > 100 µM (inactive), the GI50 (UO-31) was > 100 µM (inactive) and the GI50 (SNB-19) was > 100 µM (inactive). For the same molecule, the GI50 (SF-268) was > 100 µM (inactive).
